pIC50: −log10 of the molar value.

The text below walks through data of patent US9670231B2, “Fused tricyclic amide compounds as multiple kinase inhibitors” (BEIGENE, LTD., priority 2013, dated 2017).

What all share (assay type): biochemical
One test has as its target wild type B-Raf (Homo sapiens (Human), UniProt P15056). Description: WT BRaf IC50 assay, TR-FRET. To be noted: for pIC50: Km ATP ([…] ATP), read-out: IC50 Braf-WT Km ATP. Also noted: Braf-WT Km ATP, % at 100 nM: scale not given here. As for the experimental part: WT BRaf IC50 Assay Protocol
Compounds disclosed herein were tested against wild type B-Raf (PV3848, from Invitrogen) in a time-resolved fluorescence energy transfer assay. […] The enzyme was incubated with the compounds disclosed herein at room temperature for 120 minutes and the reactions were initiated by the addition of ATP and GST-MEK1. After incubating at room temperature for 60 minutes, an equal volume of stop buffer containing 25 mM Tris pH7.4, 400 mM KF, 50 mM EDTA, 0.1% BSA, 0.01% Triton X-100, 1 test of Eu3+Cryptate-conjugated rabbit polyclonal antibody anti-Phospho MEK1/2 (Ser217/221) and 1 test of d2-conjugated mouse monoclonal antibody anti-glutathione S-transferase was added to stop the reactions. Plates were sealed and incubated at room temperature for 1.5 hours, and then the TR-FRET signals were read on BMG PHERAstar FS instrument. The IC50 for each compound was calculated by non linear regression by Graphpad Prism software.
Background: Time-resolved FRET reads energy transfer from a long-lived donor to a nearby acceptor.

The target of another test is B-Raf (V600E) (Homo sapiens (Human), UniProt P15056, V600E). The test can be described thus: Raf IC50 assay, TR-FRET, B-Raf (V600E). The conditions noted are these: 0.1 mM ATP; read-out: IC50 BRAF-V600E. As for the experimental part: The enzyme was incubated with the compounds disclosed herein at room temperature for 60 minutes and the reactions were initiated by the addition of ATP and GST-MEK1. After reaction at room temperature for 60 minutes, an equal volume of stop/detection solution was added according to the manufacture's instruction (CisBio Bioassays). […] The IC50 for each compound was derived from fitting the dose-response % inhibition data to the four-parameter logistic model by Graphpad Prism software.
B-Raf (V600E), sequence (P15056 whole entry V600E): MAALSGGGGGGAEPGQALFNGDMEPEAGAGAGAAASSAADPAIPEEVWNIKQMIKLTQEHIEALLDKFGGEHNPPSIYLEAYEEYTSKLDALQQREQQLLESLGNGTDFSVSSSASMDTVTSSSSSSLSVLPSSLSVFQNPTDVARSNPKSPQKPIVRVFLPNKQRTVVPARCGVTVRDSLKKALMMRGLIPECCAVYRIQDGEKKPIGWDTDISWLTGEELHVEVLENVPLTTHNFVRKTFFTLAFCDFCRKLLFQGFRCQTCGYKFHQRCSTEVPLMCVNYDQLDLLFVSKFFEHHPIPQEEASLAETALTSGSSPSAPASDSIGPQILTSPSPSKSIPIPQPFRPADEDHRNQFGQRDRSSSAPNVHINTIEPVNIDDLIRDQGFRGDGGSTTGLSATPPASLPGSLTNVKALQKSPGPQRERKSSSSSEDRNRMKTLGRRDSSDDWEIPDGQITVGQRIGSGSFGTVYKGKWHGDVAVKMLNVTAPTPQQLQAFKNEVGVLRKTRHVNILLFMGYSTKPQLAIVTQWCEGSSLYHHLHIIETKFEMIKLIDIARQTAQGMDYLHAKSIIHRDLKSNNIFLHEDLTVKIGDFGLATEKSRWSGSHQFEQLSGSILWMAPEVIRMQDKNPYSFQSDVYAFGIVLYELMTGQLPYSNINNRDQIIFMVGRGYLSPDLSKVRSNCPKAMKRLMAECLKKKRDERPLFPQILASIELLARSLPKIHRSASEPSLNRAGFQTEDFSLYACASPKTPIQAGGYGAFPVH

For the next test, the target named is WT EGFR kinase domain (Homo sapiens (Human), UniProt P00533). The test can be described thus: EGFR enzymatic assay, TR-FRET, WT EGFR. Here is the method:
(§1) Compounds disclosed herein were tested against WT EGFR kinase domain (aa.669-1210, Carna Biosciences, 08-115), EGFR T790M/L858R kinase domain (aa.669-1210, Carna Biosciences, 08-510) and EGFR L858R kinase domain (aa.669-1210, Carna Biosciences, 08-502) in assays based on time-resolved fluorescence-resonance energy transfer methodology. The assay was carried out in 384-well low volume black plate in a reaction mixture containing EGFR kinases, 20 LM for EGFR WT and T790M/L858R, and 125 LM for EGFR L858R), biotin-TK substrate and 0-5 LM compounds in buffer containing 50 mM HEPES pH7.5, 10 mM MgCl2, 1 mM EGTA, 0.01% Brij-35, 2.5 mM DTT, 0.1% BSA. The kinase was incubated with the compounds disclosed herein at room temperature for 120 minutes and the reaction was initiated by the addition of ATP and biotin-TK substrate. After reaction at room temperature for 30 minutes, an equal volume of stop/detection solution was added according to the manufacture's instruction (CisBio Bioassays). The stop/detection solution contained TK-Antibody-Cryptate and Streptavidin-XL665 in buffer containing 25 mM Tris pH7.4, 400 mM KF, 50 mM EDTA, 0.01% BSA, 0.01% Triton X-100. Plates were sealed and incubated at room temperature for 1 hour, and the TR-FRET signals were read on BMG PHERAstar FS instrument. The IC50 of an inhibitor was derived from fitting the % inhibition data at each compound concentration to the four-parameter logistic equation by Graphpad Prism software.

The target in a further test is EGFR L858R kinase domain (Homo sapiens (Human), UniProt P00533, L858R). Description: EGFR enzymatic assay, TR-FRET, EGFR L858R. As for the experimental part:
as §1

Test [1] concerns the target EGFR T790M/L858R kinase domain (Homo sapiens (Human), UniProt P00533, L858R/T790M). Description: EGFR enzymatic assay, TR-FRET, EGFR T790M/L858R. As for the experimental part: as §1

WT EGFR kinase domain, sequence (P00533 669-1210): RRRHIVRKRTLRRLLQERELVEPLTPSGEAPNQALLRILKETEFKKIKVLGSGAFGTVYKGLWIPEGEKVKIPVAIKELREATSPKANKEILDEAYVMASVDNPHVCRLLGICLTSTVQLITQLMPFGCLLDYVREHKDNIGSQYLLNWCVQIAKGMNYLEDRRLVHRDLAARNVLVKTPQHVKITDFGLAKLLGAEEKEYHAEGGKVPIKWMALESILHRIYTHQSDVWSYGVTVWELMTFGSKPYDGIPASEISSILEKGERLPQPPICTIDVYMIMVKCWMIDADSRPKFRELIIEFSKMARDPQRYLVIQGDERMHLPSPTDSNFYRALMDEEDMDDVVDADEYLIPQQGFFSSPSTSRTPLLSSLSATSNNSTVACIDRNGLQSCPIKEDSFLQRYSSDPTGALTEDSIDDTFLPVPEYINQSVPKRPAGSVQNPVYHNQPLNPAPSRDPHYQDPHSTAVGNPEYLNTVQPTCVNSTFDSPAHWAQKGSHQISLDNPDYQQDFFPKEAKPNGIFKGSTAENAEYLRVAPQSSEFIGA
EGFR L858R kinase domain, sequence (P00533 669-1210 L858R): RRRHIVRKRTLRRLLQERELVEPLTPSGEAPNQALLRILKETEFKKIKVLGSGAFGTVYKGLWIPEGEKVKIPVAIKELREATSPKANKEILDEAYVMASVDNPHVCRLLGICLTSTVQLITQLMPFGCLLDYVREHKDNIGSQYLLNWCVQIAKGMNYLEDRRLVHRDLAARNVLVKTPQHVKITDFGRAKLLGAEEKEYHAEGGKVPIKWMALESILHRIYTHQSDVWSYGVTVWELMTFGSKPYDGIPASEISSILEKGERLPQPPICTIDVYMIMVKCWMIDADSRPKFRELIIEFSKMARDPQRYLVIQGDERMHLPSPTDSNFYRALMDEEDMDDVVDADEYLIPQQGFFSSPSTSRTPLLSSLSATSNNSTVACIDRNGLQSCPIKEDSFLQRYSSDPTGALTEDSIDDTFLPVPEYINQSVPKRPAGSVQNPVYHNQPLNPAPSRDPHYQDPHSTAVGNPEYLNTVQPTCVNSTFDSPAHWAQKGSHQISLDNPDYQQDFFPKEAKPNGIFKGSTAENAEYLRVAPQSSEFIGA
wild type B-Raf, sequence (P15056 whole entry): as the sequence (P15056 whole entry V600E) above, with E600V counted along it
EGFR T790M/L858R kinase domain, sequence (P00533 669-1210 T790M/L858R): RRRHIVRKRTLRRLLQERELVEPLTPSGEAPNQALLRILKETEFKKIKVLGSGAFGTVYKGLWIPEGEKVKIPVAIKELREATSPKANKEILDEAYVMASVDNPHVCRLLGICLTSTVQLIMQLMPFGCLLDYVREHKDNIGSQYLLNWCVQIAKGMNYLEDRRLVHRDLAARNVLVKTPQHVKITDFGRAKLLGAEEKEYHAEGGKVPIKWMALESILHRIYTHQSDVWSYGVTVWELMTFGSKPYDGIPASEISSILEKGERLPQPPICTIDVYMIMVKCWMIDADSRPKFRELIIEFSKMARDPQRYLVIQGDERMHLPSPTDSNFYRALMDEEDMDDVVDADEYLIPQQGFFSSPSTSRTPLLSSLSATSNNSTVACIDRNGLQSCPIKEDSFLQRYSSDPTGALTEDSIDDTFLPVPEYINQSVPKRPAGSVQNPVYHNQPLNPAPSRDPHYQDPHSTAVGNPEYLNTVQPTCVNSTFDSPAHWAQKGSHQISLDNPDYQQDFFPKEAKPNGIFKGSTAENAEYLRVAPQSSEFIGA

`CN(C)[C@H]1CCN(Cc2ccc(C(=O)N[C@@H]3[C@H]4Oc5ccc(Oc6ccnc7c6CCC(=O)N7)cc5[C@@H]34)cc2C(F)(F)F)C1` [Compound 1.9]: the pIC50 on wild type B-Raf is 7.49.
In the case of `CCCCCC(=O)N[C@@H]1[C@H]2Oc3ccc(Oc4ccnc5c4CCC(=O)N5)cc3[C@@H]12` [Compound 1.67], the pIC50 is 9.22 on B-Raf (V600E), 6.41 on WT EGFR kinase domain, 6.74 on EGFR L858R kinase domain and 5.85 in test [1].
On the same counts, the results for `Cc1cc(C(=O)N[C@@H]2[C@H]3Oc4ccc(Oc5ccnc6c5CCC(=O)N6)cc4[C@@H]23)ccc1CO` [Compound 1.59, 4-(hydroxymethyl)-3-methyl-N-((1S,1aS,6bS)-5-((7-oxo-5,6,7,8-tetrahydro-1,8-naphthyridin-4-yl)oxy)-1a,6b-dihydro-1H-cyclopropa[b]benzofuran-1-yl)benzamide] are 9.00, 7.72, 8.32 and 8.21.
Turning to `CC1CN(Cc2ccc(C(=O)N[C@@H]3[C@H]4Oc5ccc(Oc6ccnc7c6CCC(=O)N7)cc5[C@@H]34)cc2C(F)(F)F)CC(C)N1` (stereo partly drawn) [Compound 1.65, 4-((3,5-dimethylpiperazin-1-yl)methyl)-N-((1S,1aS,6bS)-5-((7-oxo-5,6,7,8-tetrahydro-1,8-naphthyridin-4-yl)oxy)-1a,6b-dihydro-1H-cyclopropa[b]benzofuran-1-yl)-3-(trifluoromethyl)benzamide], the negative-log IC50 (pIC50) is 8.09 on B-Raf (V600E), 8.72 against WT EGFR kinase domain, 8.96 on EGFR L858R kinase domain and 7.96 in test [1].
Consider `CCN1CCN(Cc2ccc(C(=O)N[C@@H]3[C@H]4Oc5ccc(Oc6ccnc7c6CCC(=O)N7)cc5[C@@H]34)cc2C)CC1` [Compound 1.57, 4-((4-ethylpiperazin-1-yl)methyl)-3-methyl-N-((1S,1aS,6bS)-5-((7-oxo-5,6,7,8-tetrahydro-1,8-naphthyridin-4-yl)oxy)-1a,6b-dihydro-1H-cyclopropa[b]benzofuran-1-yl)benzamide], for which the pIC50 was 8.19 on B-Raf (V600E), 8.82 against WT EGFR kinase domain, 9.30 at EGFR L858R kinase domain and 8.51 in test [1].
For the compound `CN1CCN(Cc2ccc(C(=O)N[C@@H]3[C@H]4Oc5ccc(Oc6ccnc7c6CNC(=O)N7)cc5[C@@H]34)cc2C(F)(F)F)CC1` [Compound 2.7], the negative logarithm of the IC50 (pIC50) at B-Raf (V600E) was 7.80; on WT EGFR kinase domain, 9.17; at EGFR L858R kinase domain it was 9.82; in test [1], 10.08.
For `CN(C)Cc1cc(C(=O)N[C@@H]2[C@H]3Oc4ccc(Oc5ccnc6c5CCC(=O)N6)cc4[C@@H]23)cc(C(F)(F)F)c1` [Compound 1.66], in that order: 8.44, 8.03, 7.89 and 7.09.
Regarding `CCN1CCN(Cc2ccc(C(=O)N[C@@H]3[C@H]4Oc5ccc(Oc6ccnc7c6CNC(=O)N7)cc5[C@@H]34)cc2C(F)(F)F)CC1` [Compound 2.6, 4-((4-ethylpiperazin-1-yl)methyl)-N-((1S,1aS,6bS)-5-((2-oxo-1,2,3,4-tetrahydropyrido[2,3-d]pyrimidin-5-yl)oxy)-1a,6b-dihydro-1H-cyclopropa[b]benzofuran-1-yl)-3-(trifluoromethyl)benzamide], the negative-log IC50 (pIC50) at B-Raf (V600E) was 7.77; at WT EGFR kinase domain, 9.37; at EGFR L858R kinase domain it was 10.07; in test [1], 10.12.
On the same counts, the results for `CN1CCN(Cc2ccc(C(=O)N[C@@H]3[C@H]4Oc5ccc(Oc6ccnc7c6CCC(=O)N7)cc5[C@@H]34)cc2F)CC1` [Compound 1.21] are 8.06, 8.89, 9.55 and 8.52.
With `CN(C)C1CCN(Cc2ccc(C(=O)N[C@@H]3[C@H]4Oc5ccc(Oc6ccnc7c6CCC(=O)N7)cc5[C@@H]34)cc2C(F)(F)F)CC1` [Compound 1.20], the negative logarithm of the IC50 (pIC50) at wild type B-Raf was 7.80.
As for `CCN1CCN(Cc2ccc(C(=O)NC3C4Oc5c(C)cc(Oc6ccnc7c6CCC(=O)N7)cc5C34)cc2C(F)(F)F)CC1` (stereo not shown) [Compound 1.55, 4-((4-ethylpiperazin-1-yl)methyl)-N-(3-methyl-5-((7-oxo-5,6,7,8-tetrahydro-1,8-naphthyridin-4-yl)oxy)-1a,6b-dihydro-1H-cyclopropa[b]benzofuran-1-yl)-3-(trifluoromethyl)benzamide], the pIC50 on B-Raf (V600E) is 7.74; against WT EGFR kinase domain, 8.66; against EGFR L858R kinase domain it was 9.46; in test [1], 9.40.
For `COc1cc(C(=O)N[C@@H]2[C@H]3Oc4ccc(Oc5ccnc6c5CCC(=O)N6)cc4[C@@H]23)ccc1CN1CCN(C)CC1` [Compound 1.72], the negative-log IC50 (pIC50) at B-Raf (V600E) is 8.11; at WT EGFR kinase domain, 8.52; against EGFR L858R kinase domain, 9.00; in test [1], 7.49.
As to `O=C1CCc2c(Oc3ccc4c(c3)[C@H]3[C@H](NC(=O)c5cncc(C(F)(F)F)c5)[C@H]3O4)ccnc2N1` [Compound 1.62], the pIC50 at B-Raf (V600E) was 8.89; against WT EGFR kinase domain, 7.38; against EGFR L858R kinase domain, 7.55; in test [1], 6.94.
For `O=C1CCc2c(Oc3ccc4c(c3)[C@H]3[C@H](NC(=O)c5ccc(C(F)(F)F)c(F)c5)[C@H]3O4)ccnc2N1` [Compound 1.42], the pIC50 at B-Raf (V600E) was 8.04. The “Braf-WT Km ATP, % at 100 nM” value at wild type B-Raf (at 100 nM compound, Km ATP) is 102% at 100 nM.
Take `O=C1CCc2c(Oc3ccc4c(c3)[C@H]3[C@H](NC(=O)c5ccc(CO)c(C(F)(F)F)c5)[C@H]3O4)ccnc2N1` [Compound 1.76, 4-(hydroxymethyl)-N-((1S,1aS,6bS)-5-((7-oxo-5,6,7,8-tetrahydro-1,8-naphthyridin-4-yl)oxy)-1a,6b-dihydro-1H-cyclopropa[b]benzofuran-1-yl)-3-(trifluoromethyl)benzamide]: the negative-log IC50 (pIC50) at B-Raf (V600E) is 8.43; at WT EGFR kinase domain, 8.38; at EGFR L858R kinase domain, 7.74; in test [1], 7.51.
Regarding `CN1CCN(CCOc2ccc(C(=O)N[C@@H]3[C@H]4Oc5ccc(Oc6ccnc7c6CCC(=O)N7)cc5[C@@H]34)cc2C(F)(F)F)CC1` [Compound 1.52], the pIC50 at wild type B-Raf is 7.82.
In the case of `CCN1CCN(c2ccc(C(=O)N[C@@H]3[C@H]4Oc5ccc(Oc6ccnc7c6CCC(=O)N7)cc5[C@@H]34)cc2C(F)(F)F)CC1` [Compound 1.50], the pIC50 at B-Raf (V600E) was 7.96; against WT EGFR kinase domain, 8.20; against EGFR L858R kinase domain, 8.15; in test [1] it was 7.60.
`CCCCCCC(=O)N[C@@H]1[C@H]2Oc3ccc(Oc4ccnc5c4CCC(=O)N5)cc3[C@@H]12` [Compound 1.68]: the pIC50 at B-Raf (V600E) is 9.11; against WT EGFR kinase domain, 7.01; against EGFR L858R kinase domain, 7.15; in test [1], 7.02.
Turning to `C[C@@H]1CN(Cc2ccc(C(=O)N[C@@H]3[C@H]4Oc5ccc(Oc6ccnc7c6CCC(=O)N7)cc5[C@@H]34)cc2C(F)(F)F)C[C@H](C)O1` [Compound 1.13], the negative-log IC50 (pIC50) at B-Raf (V600E) was 7.07; against WT EGFR kinase domain it was 7.23; on EGFR L858R kinase domain it was 7.96; in test [1], 7.33.
For `Cc1cc(C(=O)N[C@@H]2[C@H]3Oc4ccc(Oc5ccnc6c5CCC(=O)N6)cc4[C@@H]23)ccc1CN1CCN(C)CC1` [Compound 1.58], the pIC50 at B-Raf (V600E) is 8.26; against WT EGFR kinase domain, 8.92; on EGFR L858R kinase domain, 9.51; in test [1] it was 8.74.
For `CCN1CCN(Cc2ccc(C(=O)N[C@@H]3[C@H]4Oc5ccc(Oc6ccnc7c6CCC(=O)N7)cc5[C@@H]34)cc2Br)CC1` [Compound 1.19], in that order: 8.27, 9.26, 9.57 and 8.96.

A word on the pIC50: it is the negative decadic logarithm of the IC50, by convention in mol/L.
